The data set is described as follows: activity coefficient (dimensionless); of the first substance listed, at infinite dilution; xn = mol fraction of the nth substance listed. The note with it: 101 kPa, Liquid, Chromatography, x1 = 0.

Numbers after ± are expanded uncertainties.

On to `Cc1ccccc1C` [1,2-dimethylbenzene] + CCCCCCCCCCn1cc[n+](C)c1.F[B-](F)(F)F, for which the activity coefficient was 1.79 ± 0.11 (303.15 K); 1.77 ± 0.11 (313.15 K); 1.75 ± 0.11 (323.15 K); 1.73 ± 0.11 (333.15 K); 1.72 ± 0.11 (343.15 K); 1.72 ± 0.11 (353.15 K). Besides, the activity coefficient (363.15 K) is 1.71 ± 0.11.

Take `Cc1cccc(C)c1` [1,3-dimethylbenzene] + CCCCCCCCCCn1cc[n+](C)c1.F[B-](F)(F)F: the activity coefficient (303.15 K) stood at 2.03 ± 0.13; the activity coefficient (313.15 K) was 2.02 ± 0.13; the activity coefficient (323.15 K) was determined as 1.97 ± 0.13; the activity coefficient (333.15 K) amounted to 1.95 ± 0.13; the activity coefficient (343.15 K) amounted to 1.94 ± 0.12; the activity coefficient (353.15 K) amounted to 1.92 ± 0.12. Further, the activity coefficient (363.15 K) is 1.91 ± 0.12.

Turning to `Cc1ccc(C)cc1` [1,4-dimethylbenzene] + CCCCCCCCCCn1cc[n+](C)c1.F[B-](F)(F)F, the activity coefficient (303.15 K) amounted to 1.99 ± 0.13; the activity coefficient (313.15 K) was 1.96 ± 0.13; the activity coefficient (323.15 K) was determined as 1.93 ± 0.12; the activity coefficient (333.15 K) worked out at 1.92 ± 0.12; the activity coefficient (343.15 K) was 1.91 ± 0.12; the activity coefficient (353.15 K) was 1.88 ± 0.12. For the same compound, the activity coefficient (363.15 K) was 1.86 ± 0.12.

Take `CC(C)CC(C)(C)C` [2,2,4-trimethylpentane] + CCCCCCCCCCn1cc[n+](C)c1.F[B-](F)(F)F: the activity coefficient is, setting by setting: (303.15 K) 9.13 ± 0.59; (313.15 K) 9.11 ± 0.59; (323.15 K) 9.1 ± 0.6; (333.15 K) 9.08 ± 0.59; (343.15 K) 9.07 ± 0.59; (353.15 K) 9.07 ± 0.59. Further, the activity coefficient (363.15 K) is 9.06 ± 0.59.

In the case of `c1ccccc1` [benzene] + CCCCCCCCCCn1cc[n+](C)c1.F[B-](F)(F)F, the activity coefficient by setting is: (303.15 K) 1.15 ± 0.07; (313.15 K) 1.14 ± 0.07; (323.15 K) 1.11 ± 0.07; (333.15 K) 1.1 ± 0.1; (343.15 K) 1.08 ± 0.06; (353.15 K) 1.07 ± 0.06. Where the note is “363.15 K”, the activity coefficient turned out to be 1.06 ± 0.06.

Turning to `C1CCCCC1` [cyclohexane] + CCCCCCCCCCn1cc[n+](C)c1.F[B-](F)(F)F, the activity coefficient is, setting by setting: (303.15 K) 4.42 ± 0.29; (313.15 K) 4.43 ± 0.29; (323.15 K) 4.43 ± 0.29; (333.15 K) 4.47 ± 0.29; (343.15 K) 4.5 ± 0.3; (353.15 K) 4.56 ± 0.29. The activity coefficient (363.15 K) was found to be 4.69 ± 0.3.

For the compound `C1=CCCCC1` [cyclohexene] + CCCCCCCCCCn1cc[n+](C)c1.F[B-](F)(F)F, the activity coefficient turned out to be 3.03 ± 0.2 (303.15 K); 3.01 ± 0.19 (313.15 K); 2.99 ± 0.19 (323.15 K); 2.97 ± 0.19 (333.15 K); 2.96 ± 0.19 (343.15 K); 2.96 ± 0.19 (353.15 K). The activity coefficient (363.15 K) amounted to 2.96 ± 0.19.

As for `CCc1ccccc1` [ethylbenzene] + CCCCCCCCCCn1cc[n+](C)c1.F[B-](F)(F)F, the activity coefficient reads like this: (313.15 K) 2.02 ± 0.13; (323.15 K) 2.01 ± 0.13; (333.15 K) 1.99 ± 0.13; (343.15 K) 1.98 ± 0.13; (353.15 K) 1.97 ± 0.13; (363.15 K) 1.96 ± 0.13.

Consider `CCCCCCC` [heptane] + CCCCCCCCCCn1cc[n+](C)c1.F[B-](F)(F)F, for which the activity coefficient was found to be 8.01 ± 0.52 (303.15 K); 7.97 ± 0.52 (313.15 K); 7.95 ± 0.51 (323.15 K); 7.93 ± 0.51 (333.15 K); 7.91 ± 0.51 (343.15 K); 7.89 ± 0.51 (353.15 K). Moreover, the activity coefficient (363.15 K) was 7.88 ± 0.51.

On to `CCCCCC` [hexane] + CCCCCCCCCCn1cc[n+](C)c1.F[B-](F)(F)F, for which the activity coefficient was determined as 7.36 ± 0.48 (303.15 K); 7.16 ± 0.46 (313.15 K); 7.03 ± 0.45 (323.15 K); 6.94 ± 0.45 (333.15 K); 6.86 ± 0.44 (343.15 K); 6.81 ± 0.44 (353.15 K). The activity coefficient (363.15 K) was 6.68 ± 0.43.

For `CC1CCCCC1` [methylcyclohexane] + CCCCCCCCCCn1cc[n+](C)c1.F[B-](F)(F)F, the activity coefficient by setting is: (303.15 K) 5.19 ± 0.34; (313.15 K) 5.23 ± 0.34; (323.15 K) 5.24 ± 0.34; (333.15 K) 5.28 ± 0.34; (343.15 K) 5.32 ± 0.34; (353.15 K) 5.36 ± 0.35. Further, under “363.15 K”, the activity coefficient worked out at 5.39 ± 0.35.

Consider `CCCCCCCCC` [nonane] + CCCCCCCCCCn1cc[n+](C)c1.F[B-](F)(F)F, for which the activity coefficient runs as follows: (303.15 K) 10.7 ± 0.69; (313.15 K) 10.7 ± 0.69; (323.15 K) 10.7 ± 0.69; (333.15 K) 10.7 ± 0.69; (343.15 K) 10.7 ± 0.69; (353.15 K) 10.7 ± 0.69. The activity coefficient (363.15 K) worked out at 10.6 ± 0.69.

Consider `CCCCCCCC` [octane] + CCCCCCCCCCn1cc[n+](C)c1.F[B-](F)(F)F, for which the activity coefficient came out at 9.3 ± 0.6 (303.15 K); 9.26 ± 0.6 (313.15 K); 9.21 ± 0.6 (323.15 K); 9.2 ± 0.6 (333.15 K); 9.17 ± 0.59 (343.15 K); 9.16 ± 0.59 (353.15 K). The activity coefficient (363.15 K) came to 9.13 ± 0.59.

In the case of `CCCCC` [pentane] + CCCCCCCCCCn1cc[n+](C)c1.F[B-](F)(F)F, the activity coefficient is, setting by setting: (303.15 K) 6.88 ± 0.45; (313.15 K) 6.72 ± 0.43; (323.15 K) 6.53 ± 0.42; (333.15 K) 6.29 ± 0.41; (343.15 K) 6.12 ± 0.4; (353.15 K) 6.01 ± 0.39. Moreover, the activity coefficient (363.15 K) was determined as 5.93 ± 0.38.

In the case of `C=Cc1ccccc1` [styrene] + CCCCCCCCCCn1cc[n+](C)c1.F[B-](F)(F)F, the activity coefficient (313.15 K) is 1.25 ± 0.08; the activity coefficient (323.15 K) stood at 1.22 ± 0.07; the activity coefficient (333.15 K) is 1.2 ± 0.1; the activity coefficient (343.15 K) came out at 1.18 ± 0.07; the activity coefficient (353.15 K) came to 1.16 ± 0.07; the activity coefficient (363.15 K) stood at 1.14 ± 0.07.

In the case of `Cc1ccccc1` [toluene] + CCCCCCCCCCn1cc[n+](C)c1.F[B-](F)(F)F, the activity coefficient was 1.52 ± 0.09 (303.15 K); 1.49 ± 0.09 (313.15 K); 1.47 ± 0.09 (323.15 K); 1.43 ± 0.09 (333.15 K); 1.41 ± 0.09 (343.15 K); 1.4 ± 0.1 (353.15 K). The activity coefficient (363.15 K) came out at 1.35 ± 0.08.

For the origin of these results see the NIST ThermoML archive (doi:10.1021/je100952p).
